Reference: patent US8754047B2, “Peptide compositions and methods of use” (The Research Foundation for the State University of New York, priority 2008, dated 2014)
Entries after “also recorded” stand apart in the source; their conditions may differ. Positions of bridges follow the written chain, without caps; N, C: chain ends. Residues, ends and D or L forms follow the SMILES beside them. No end group written: not given here.

Tests used:
[1] = test system: BxPC-3 human pancreatic cancer cells; conditions: 24 h
Description: (§1) 10,000 HT29 or SW480 human colon cancer cells, BxPC-3 human pancreatic cancer cells, and MCF7 and MDA-MB-231 breast cancer cells were obtained from American Type Culture Collection (ATTC), Manassas, Va., and were seeded in separate 96-well plates. After treatment with various concentrations (6.25 μM, 12.5 μM, 25 μM, 50 μM, 100 μM, or 200 μM) of test peptide for 24 h, cells were stained with MTT (3-(4,5-Dimethyl-2-thiazolyl)-2,5-diphenyl-2H-tetrazolium bromide, from Sigma-Aldrich) following the instructions of the manufacturer. Before dissolving MTT in SDS, the HT29 and SW480 cells were photographed using a digital camera connected with a phase-contrast microscope. (FIG. 2A1-8, and FIG. 2B1-6). Cells that are alive convert MTT into formazan in their active mitochondria and appear dark purple; dead cells are not stained by MTT and appear colorless.
(§2) The IC50 is the concentration of the test agent that inhibits cell growth by 50% at 24 hours of exposure. IC50s were determined using the MTT assay or using the cell Titer-Glo method and following the instructions of the manufacturer ([…]). […] (Sun, Y., and Rigas, B., (2008), Cancer Res., 68(20): 8269-8277).

[2] = test system: MDA-MB-231 breast cancer cells; conditions: 24 h
Description: as §1, §2

MCF7 breast cancer cells = conditions: 24 h
Description: as §1, §2

[3] = test system: HT29, SW480, BxPC3, MCF7, and MDA-MB-231 cell lines; assay type: cell-based, human; conditions: 24 h
Description: (FIG. 2A1-8, and FIG. 2B1-6).

[4] = test system: SW480 human colon cancer cells; assay: Flow cytometry forward/side scatter, proportion of dead cells, SW480; assay type: cell-based
Description: (§3) SW480 human colon cancer cells and MCF7 breast cancer cells were grown following the instructions of American Type Culture Collection (ATCC, Monassas, Va.). The cells were treated with the test peptides (YJB01, YJB05, or YJB06) for 24 hrs at concentrations ranging from 0 μM, to 200 μM and subjected to flow cytometric analysis following standard protocols.
(§4) SW480 human colon cancer cells and MCF7 breast cancer cells were grown following the instructions of American Type Culture Collection (ATCC, Monassas, Va.). The cells were treated with the test peptides for 24 hrs at concentrations ranging from 0 μM, to 200 μM and subjected to flow cytometry analysis following standard protocols. […] The circumscribed (gated, outlined) areas in the figure indicate dead cells; dead cells generally have higher density (side scatter) and smaller size (forward scatter) than living cells.

peroxiredoxin 1 = assay: Oxidized peroxiredoxin 1 (Prx-O3) immunoblot in SW480 cells; assay type: cell-based, human; conditions: 1 h, YJB01 20 μM and 100 μM, YJB05 100 μM
Description: (§5) The oxidized peroxiredoxin 1 (sulphonic-peroxiredoxin, Prx-O3) was detected by using the specific anti-Prx-O3 antibody. Briefly, after SW480 cells were treated with either no peptide, with YBJ01 (at 20 μM and 100 μM), or with YJB05 (at 100 μM) for 1 h, total cell lysates were collected and separated on the SDS-PAGE gel. The gel was electroblotted onto a nitrocellulose membrane and probed with anti-Prx-O3, followed by HRP-conjugated secondary antibody. Bands corresponding to sulphonic-peroxiredoxin were visualized by ECL
as §5, with “anti-Prx-O3 antibody” for “anti-Prx-O3 antibody.”, “with YBJ05” for “with YJB05”

thioredoxin 1 = target: T1, thioredoxin 1 (Homo sapiens, UniProt P10599); assay: Thioredoxin 1 redox state, native PAGE immunoblot in SW480 cells; assay type: cell-based; conditions: YJB01 20 μM and 100 μM, YJB05 100 μM
T1 construct: endogenous in cells; host or cells: SW480 human colon cancer cells
T1 sequence (P10599 1-105): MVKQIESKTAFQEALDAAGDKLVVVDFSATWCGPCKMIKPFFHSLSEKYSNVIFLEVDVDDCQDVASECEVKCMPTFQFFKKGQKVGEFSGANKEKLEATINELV
Description: (§6) SW480 human colon cancer cells were grown following the instructions of American Type Culture Collection (ATCC, Monassas, Va.). Cells were treated with either no peptide, with YBJ01 (at 20 μM and 100 μM), or with YBJ05 (at 100 μM). 10^6 cells were lysed in 6 mol/L guanidinium chloride, 50 mmol/L Tris/HCL (pH 8.3), 3 mmol/L EDTA, and 0.5% Triton-X-100 containing 50 mmol/L iodoacetic acid. After 30 min at 37° C., the excess idoacetic acid was removed using Microspin G-25 columns (GE Healthcare Life Sciences). Oxidized and reduced thioredxoin was separated by native PAGE. The gel was electroblotted onto a nitrocellulose membrane and probed with thioredoxin antibodies, followed by HRP-conjugated secondary antibody. Bands corresponding to thioredoxin were visualized by ECL.
as §6, with “10^6 cells from each sample were lysed” for “10^6 cells were lysed”, “native PAGE. […]” for “native PAGE. The gel was electroblotted onto a nitrocellulose membrane and probed with thioredoxin antibodies, followed by HRP-conjugated secondary antibody. Bands corresponding to thioredoxin were visualized by ECL.”

[5] = test system: MCF-7 human breast cancer cells; assay: Flow cytometry forward/side scatter, proportion of dead cells, MCF7; assay type: cell-based; conditions: 200 μM, 24 hr
Description: as §3, §4

[6] = test system: SW480 human colon cancer cells; assay: Annexin V-FITC flow cytometry for apoptotic cells, SW480; assay type: cell-based; conditions: 24 hrs, 0 μM to 200 μM
Description: (§7) SW480 human colon cancer cells and MCF7 breast cancer cells were grown following the instructions of American Type Culture Collection (ATCC, Monassas, Va.). The cells were treated with the test peptides (YJB01, YJB05, or YJB06) for 24 hrs at concentrations ranging from 0 μM, to 200 μM. After treatment, cells were trypsinized and stained with Annexin V-FITC (100× dilution) for 15 minutes. Annexin V-FITC fluorescence intensities were analyzed by FACSCaliber (BD Bioscience) following standard protocols. Annexin V (+) cells are apoptotic cells.
When cells undergo apoptosis, the inner membrane phospholipid, phosphotidylserine (PS), flips to the outer membrane and can be recognized by the […]. The green FITC fluorescence can be determined by flow cytometry and thus Annexin V (+) cells are apoptotic cells.
as §7, with “In this study, SW480” for “SW480”, “human” for “human colon”, “treatment” for “treatment,”, “protocols.” for “protocols. Annexin V (+) cells are apoptotic cells.”

Molecule	IC50 [1] [µM]	IC50 [2] [µM]	IC50 (MCF7 breast cancer cells) [µM]	IC50 [3] [µM]	cell killing effect, SW480 ([4]; 24 hrs, 0 μM to 200 μM)	dead cells, SW480 ([4]; 200 μM, 24 hr) [%]	induction of the oxidized form of peroxiredoxin 1 (peroxiredoxin 1)	induction of the oxidized form of thioredoxin 1 (thioredoxin 1)	dead cells, MCF7 [5] [%]	apoptosis, Annexin V (+) cells, SW480 [6]
CC[C@H](C)[C@H](NC(=O)[C@H](CCCCN)NC(=O)[C@@H](NC(=O)[C@H](CCC(N)=O)NC(=O)[C@H](CCCNC(=N)N)NC(=O)[C@@H]1CCCN1C(=O)[C@H](C)NC(=O)[C@@H]1CCCN1C(=O)[C@@H]1CSSC[C@H](NC(=O)[C@@H](N)C(C)C)C(=O)N2CCC[C@H]2C(=O)N[C@@H](C(C)C)C(=O)N1)[C@@H](C)CC)C(=O)N[C@@H](Cc1c[nH]c2ccccc12)C(=O)N[C@@H](Cc1ccccc1)C(=O)N[C@@H](CCC(N)=O)C(=O)N[C@@H](CC(N)=O)C(=O)N[C@@H](CCCNC(=N)N)C(=O)N[C@@H](CCCNC(=N)N)C(=O)N[C@@H](CCSC)C(=O)N[C@@H](CCCCN)C(=O)N[C@@H](Cc1c[nH]c2ccccc12)C(=O)N[C@@H](CCCCN)C(=O)N[C@@H](CCCCN)C(=O)O [YJB04] (H-VCPVCPAPRQIKIWFQNRRMKWKK-OH; disulfide 2-5; N-terminus and C-terminus assumed)	123	195	25	–	–	–	–	–	–	–
CC[C@H](C)[C@H](NC(=O)[C@H](CCCCN)NC(=O)[C@@H](NC(=O)[C@H](CCC(N)=O)NC(=O)[C@H](CCCNC(=N)N)NC(=O)[C@@H]1CCCN1C(=O)[C@H](CCCNC(=N)N)NC(=O)[C@@H]1CSSC[C@H](NC(=O)[C@@H](N)[C@@H](C)O)C(=O)N2CCC[C@H]2C(=O)N[C@@H](Cc2ccc(O)cc2)C(=O)N1)[C@@H](C)CC)C(=O)N[C@@H](Cc1c[nH]c2ccccc12)C(=O)N[C@@H](Cc1ccccc1)C(=O)N[C@@H](CCC(N)=O)C(=O)N[C@@H](CC(N)=O)C(=O)N[C@@H](CCCNC(=N)N)C(=O)N[C@@H](CCCNC(=N)N)C(=O)N[C@@H](CCSC)C(=O)N[C@@H](CCCCN)C(=O)N[C@@H](Cc1c[nH]c2ccccc12)C(=O)N[C@@H](CCCCN)C(=O)N[C@@H](CCCCN)C(=O)O [YJB03]	153	309	21	–	–	–	–	–	–	–
C[C@H](N)C(=O)N[C@H](C(=O)N[C@@H](Cc1c[nH]c2ccccc12)C(=O)N[C@H]1CSSC[C@@H](C(=O)O)NC(=O)[C@@H]2CCCN2C(=O)CNC1=O)[C@@H](C)O [YJB06] (H-ATWCGPC-OH; disulfide 4-7 (inferred); N-terminus and C-terminus assumed)	–	–	–	> 2000	failed to kill SW480 colon cancer cells	–	–	–	–	–
ATWAGPAKPRQIKIWFQNRRMKWKK [YJB05, reference compound]	–	–	–	> 2000	–	21.62	fails to induce oxidation	failed to induce oxidation of thioredoxin 1; also recorded: fails to induce oxidation	12.52	ineffective
